From patent US7041702B1, “Pharmaceutically active compounds and methods of use” (Scion Pharmaceuticals, Inc., priority 1997, dated 2006)

Key:
DBA/2 mice = experiment: In vivo anticonvulsant activity in the DBA/2 mouse model (mouse audiogenic assay); settings: vs vehicle controls, HCl salt form
Experimental: As discussed above, preferred compounds of the invention in a standard anticonvulsant in vivo audiogenic test, such as the audiogenic mouse assay of Example 11 which follows, where DBA/2 mice about 20–23 days old are injected intraperitoneally with a test compound 30 minutes prior to being placed in a bell jar with exposure to auditory stimulus of 12 KHz sine wave at 110–120 db. References herein in vivo “audiogenic assay” are intended to refer to that protocol. […] As discussed above, activity in the audiogenic assay has been recognized as indicative that a test compound has neuroprotective properties. See, e.g., M. Tricklebank et al., European Journal of Pharmacology, supra; T. Seyfried, Federation Proceedings, supra.
Compounds were tested for their effectiveness in preventing seizures in DBA/2 mice which have a unique sensitivity to auditory stimulation. Exposure to loud high-frequency sounds can trigger seizure activity in these animals. This sensitivity develops from postnatal day 12 and peaks around day 21 and slowly diminishes as the animals mature. The unusual response to auditory stimulation in this strain of mouse is believed to be due to a combination of early myelination (causing an unusually low excitatory threshold) and delayed development of inhibitory mechanisms.
Mice were injected intraperitoneally with the compound specified in Table I below or with vehicle control, 30 minutes prior to being placed in a bell jar and turning on the auditory stimulus (12 KHz sine wave at 110–120 db). Administered doses are specified in Table I as milligram of compound per kilogram bodyweight of mouse. The auditory stimulus was left on for 60 seconds and mice reactions were timed and recorded. Percentage inhibition was determined with reference to vehicle controls. All compounds were tested in HCl salt form.

mouse = settings: recognized model for evaluation of neuroprotective drugs; cited from earlier work
[1] = in vivo; cited from earlier work
in vivo models of stroke = settings: variety of in vivo models of stroke; cited from earlier work
[2] = dose 20 mg/kg intraperitoneally 30 minutes prior to auditory stimulus (12 KHz, 110–120 db)

Row | Structure (SMILES) | Audiogenic Response % Inhib. (DBA/2 mice; [2]) [%] | melting point [°C] | further results
1 | CCCCOc1ccc(NC(=N)NCCCCc2ccccc2)cc1 [N-(4-butoxyphenyl)-N′-(4-phenylbutyl)guanidine] | 97 |  | 
2 | C[C@]12N[C@H](Cc3ccccc31)c1ccccc12 [MK-801] |  |  | activity in mouse audiogenic tests (mouse): good activity; toxicity [1]: has shown toxicity; results in in vivo models of stroke (in vivo models of stroke): good results
3 | COc1ccc(C(=O)/N=C(\N)NCCCCc2ccccc2)cc1.Cl [N-(4-methoxybenzoyl)-N′-(4-phenylbutyl)guanidine, hydrochloride] | 42 | 172 to 174 | 
4 | CCCCOc1ccc(C(=O)/N=C(\N)NCCc2c[nH]c3ccccc23)cc1.Cl |  | 158 to 162 | 
5 | COc1ccc(NC(=N)Nc2ccc(C(C)C)cc2)cc1 [N-(4-methoxyphenyl)-N′-(4-isopropylphenyl)guanidine] | 56 |  | 
6 | Cl.N/C(=N\C(=O)c1cccs1)NCCc1ccccc1 |  | 198 to 200 | 
7 | CCOc1ccc(NC(=N)NCCCCc2ccccc2)cc1 [N-(4-ethoxyphenyl)-N′-(4-phenylbutyl)guanidine] | 60 |  | 
8 | Cc1ccc(C(=O)/N=C(\N)Nc2ccc(C(C)C)cc2)cc1.Cl [N-(4-methylbenzoyl)-N′-(4-isopropylphenyl)guanidine, hydrochloride] | 30 |  | 
9 | Cc1ccc(C(=O)/N=C(\N)NCCCCc2ccccc2)cc1.Cl [N-(4-methylbenzoyl)-N′-(4-phenylbutyl)guanidine, hydrochloride] | 75 |  | Audiogenic Response % Inhib. (DBA/2 mice; dose 10 mg/kg intraperitoneally 30 minutes prior to auditory stimulus (12 KHz, 110–120 db)): 16%
